Assay results: patent US7541398B2, “Method for transformation of conventional and commercially important polymers into durable and rechargeable antimicrobial polymeric materials” (priority 2005, dated 2009)

Experiment: Durability of SHC powders: active chlorine content titrated after storage under ambient conditions
Type: physicochemical
Settings: for active chlorine content: as synthesized, before storage; for Active chlorine content, 2 month / Active chlorine content, 4 month / Active chlorine content, 6 month: storage at about 25° C.±3, humidity about 60±10%
Experimental: Durability and Rechargeability of the SHCs. Durability: After storage under ambient conditions (e.g., temperature about 25° C.±3, humidity about 60±10%) for a certain period of time, the active chlorine contents in the SHC samples were titrated and the results were listed in Table 3.

Compound	active chlorine content	Active chlorine content, 2 month	Active chlorine content, 4 month	Active chlorine content, 6 month
CC1(C)CC(OC(=O)CCCCCCCCC(=O)OC2CC(C)(C)N(Cl)C(C)(C)C2)CC(C)(C)N1Cl [SHC-1, Bis(N-chloro-2,2,6,6-tetramethyl-4-piperidyl)sebacate]	12.5%	12.6 wt. %	12.8 wt. %	12.4 wt. %
N-chloro-[(2,2,6,6-tetramethyl-4-piperidyl) alkyl formate] [SHC-3]	about 7.86%	8.10 wt. %	7.70 wt. %	7.30 wt. %
